Test results reported in paper PMC8698721, “Exploration of the Structure–Function Relationships of a Novel Frog Skin Secretion-Derived Bioactive Peptide, t-DPH1, through Use of Rational Design, Cationicity Enhancement and In Vitro Studies” (Antibiotics, 2021).
≈ marks a conversion by molar mass, not a printed value. Read-outs that look alike come from different tables or passages of the source. Where a SMILES comes first, the peptide text is derived from it.

Tests used:
S. aureus (ATCC 6538) = format: cell-based, Staphylococcus aureus; conditions: ATCC 6538, 24 h
Procedure: (§1) To assess the antimicrobial activity of t-DPH1 and its designed analogues, MIC and MBC assays were conducted. Seven microorganism strains were used in the assay: Gram-positive bacteria S. aureus (ATCC 6538), E. faecalis (NCTC 12697) and MRSA (NCTC 12493); Gram-negative bacteria E. coli (ATCC 8739), P. aeruginosa (ATCC 9027) and K. pneumoniae (ATCC 43816); yeast, C. albicans (ATCC 10231).
(§2) For MIC assay, the microorganisms were initially incubated in Mueller-Hinton broth (MHB) (for bacteria) or yeast extract peptone dextrose broth (YPD-B) (for yeast) overnight and sub-cultured to achieve their respective logarithmic growth phases (5 × 10^5 CFU/mL). Then, 99 μL of each microorganism and 1 μL of the tested peptide solution were incubated in a 96-well plate. The final on-plate peptide concentrations were from 1 to 512 μM. Except for the peptide group, four other groups were set when conducting this experiment, including a negative control group (PBS), a vehicle control group (1% DMSO), a positive control group (bacteria: 20 μg/mL norfloxacin; yeast: amphotericin B) and a blank control group (MHB or YPD-B with no microorganism culture). Thus, the MIC value represents the lowest concentration of peptides at which no visible growth of the microorganism after 24 h incubation. For the MBC assay, 10 μL of the medium from each clear well was inoculated onto a Mueller–Hinton agar (MHA) (for bacteria) or yeast extract peptone dextrose agar (YPD-A) (for yeast) plate and incubated for 24 h for measurement MBC values.

[1] = test system: Enterococcus faecalis (E. faecalis) (NCTC 12697); format: cell-based; conditions: NCTC 12697, 24 h
Procedure: as §1, §2

[2] = test system: Methicillin-resistant Staphylococcus aureus (MRSA) (NCTC 12493); format: cell-based; conditions: NCTC 12493, 24 h
Procedure: as §1, §2

E. coli (ATCC 8739) = format: cell-based, Escherichia coli; conditions: ATCC 8739, 24 h
Procedure: as §1, §2

[3] = test system: K. pneumoniae (ATCC 43816); format: cell-based, Klebsiella pneumoniae; conditions: ATCC 43816, 24 h
Procedure: as §1, §2

[4] = test system: P. aeruginosa (ATCC 9027); format: cell-based, Pseudomonas aeruginosa; conditions: ATCC 9027, 24 h
Procedure: as §1, §2

C. albicans (ATCC 10231) = format: cell-based, Candida albicans; conditions: ATCC 10231, 24 h
Procedure: as §1, §2

[5] = test system: HMEC-1 (human microvascular endothelial cell line); format: cell-based; conditions: 24 h
Procedure: (§3) The MTT assay was conducted to verify the proliferation inhibitory effect of t-DPH1 and its analogues. Human cancer cell lines (NCI-H838 (ATCC® CRL-5844, human non-small cell lung cancer)), (NCI-H157(ATCC® CRL-5802, human non-small cell lung cancer cell line)), (U251MG (ECACC 09063001, human neuronal glioblastoma cancer cell line)), (PC-3 (ATCC® CRL-1435TM, human prostate carcinoma cancer cell line)) and normal human cell lines (HMEC-1(ATCC®-CRL-3243, human microvascular endothelial cell line)) and (HaCaT (ATCC®-PCS-200-011, human keratinocyte cell)) were purchased from the American Type Culture Collection (ATCC, Manassas, VA, USA) and the European Collection of Cell Cultures (ECACC, Sallisbury, UK) for this assay. For the MTT assay, 8000 cells/per well were seeded in the 96-well plate for 24 h. Subsequently, experiment groups were dosed with fresh serum-free medium containing different concentrations of peptides (100 μM to 10 nM) in 3 replicates. Negative control groups and positive control groups were dosed with the fresh serum-free medium containing equal amounts of PBS, and 0.1% (w/v) Triton X-100, respectively. Then the 96-well plate was incubated at 37 °C with 5% CO2 for 24 h. After, ten microliters of MTT solution (5 mg/mL) (Sigma-Aldrich UK Ltd., Gillingham, UK) were added to each well and incubated in a dark environment for two hours. Then, the solution in each well was removed and 100 μL of DMSO were added and then the plate was shaken for 10 min on a shaking incubator before detecting the OD value by use of a Synergy HT plate reader (BioTek, Minneapolis, MN, USA) at λ = 570 nm.

[6] = test system: HaCaT (human keratinocyte cell); format: cell-based; conditions: 24 h
Procedure: as §3

[7] = test system: NCI-H157 (human non-small cell lung cancer cell line); format: cell-based; conditions: 24 h
Procedure: as §3

[8] = test system: NCI-H838 (human non-small cell lung cancer); format: cell-based; conditions: 24 h
Procedure: as §3

[9] = test system: PC-3 (human prostate carcinoma cancer cell line); format: cell-based; conditions: 24 h
Procedure: as §3

[10] = test system: U251MG (human neuronal glioblastoma cancer cell line); format: cell-based; conditions: 24 h
Procedure: as §3

horse red blood cells = format: cell-based
Procedure: The haemolysis assay was performed by mixing 2% (v/v) fresh defibrinated horse blood (TCS Biosciences Ltd., Buckingham, UK) with peptides in different concentrations. Before the test, horse blood was rinsed with PBS three to four times until the supernatant was clear. Next, peptide solutions (from 100 μM to 1 nM) were incubated with the suspension of red blood cells at 37 °C for two hours. The blood cells treated with 1% Triton-X 100 were used as the positive control, and the blood cells treated with PBS were used as the negative control. After incubation, 100 μL of the supernatant from each sample were transferred to a new 96-well plate, and the OD value of each well was measured with a Synergy HT plate reader (BioTek, Minneapolis, MN, USA) with the absorbance set to 570 nm.

[11] = test system: PC-3, H838, H157 and U251MG cancer cell lines; format: cell-based, human; conditions: 24 h
Procedure: as §3, with “Then the 96-well plate was incubated at 37 °C with 5% CO2 for 24 h. After, ten microliters of MTT solution (5 mg/mL) (Sigma-Aldrich UK Ltd., Gillingham, UK) were added to each well and incubated in a dark environment for two hours.” left out

| SMILES | MBC (S. aureus (ATCC 6538)) [µM] | MIC (S. aureus (ATCC 6538)) [µM] | MBC [1] [µM] | MIC [1] [µM] | MBC [2] [µM] | MIC [2] [µM] | MBC (E. coli (ATCC 8739)) [µM] | MIC (E. coli (ATCC 8739)) [µM] | MBC [3] [µM] | MIC [3] [µM] | MBC [4] [µM] | MIC [4] [µM] | MBC (C. albicans (ATCC 10231)) [µM] | MIC (C. albicans (ATCC 10231)) [µM] | IC50 against HMEC-1 [5] [µM] | IC50 against HaCaT [6] [µM] | IC50 [7] [µM] | IC50 [8] [µM] | IC50 [9] [µM] | IC50 [10] [µM] | further results |
| --- | --- | --- | --- | --- | --- | --- | --- | --- | --- | --- | --- | --- | --- | --- | --- | --- | --- | --- | --- | --- | --- |
| CC[C@H](C)[C@H](NC(=O)[C@H](CCCCN)NC(=O)[C@H](CCCCN)NC(=O)[C@H](Cc1c[nH]c2ccccc12)NC(=O)[C@H](CC(C)C)NC(=O)CN)C(=O)N[C@@H](CCCCN)C(=O)N[C@@H](CC(N)=O)C(=O)N[C@H](C(=O)N[C@@H](C)C(=O)N[C@@H](CCCCN)C(=O)N[C@@H](C)C(=O)N[C@@H](C)C(=O)NCC(=O)N[C@@H](CCCCN)C(=O)N[C@@H](C)C(=O)N[C@@H](C)C(=O)N[C@@H](CCCCN)C(=O)NCC(=O)N[C@@H](C)C(=O)N[C@@H](CC(C)C)C(N)=O)C(C)C [t-DPH1-6K] (H-GLWKKIKNVAKAAGKAAKGAL-NH2) | 8 (≈ 17 µg/mL) | 4 (≈ 8.49 µg/mL) | 512 (≈ 1090 µg/mL) | 256 (≈ 543 µg/mL) | 64 (≈ 136 µg/mL) | 32 (≈ 67.9 µg/mL) | 4 (≈ 8.49 µg/mL) | 2 (≈ 4.25 µg/mL) | 8 (≈ 17 µg/mL) | 4 (≈ 8.49 µg/mL) | 16 (≈ 34 µg/mL) | 8 (≈ 17 µg/mL) | 128 (≈ 272 µg/mL) | 64 (≈ 136 µg/mL) | 340.2 | 151.4 | 88.3 | 186 | 55.6 | 594 | HC50 (horse red blood cells; red cells of horse): 834.6 µM |
| CC[C@H](C)[C@H](NC(=O)[C@H](CCCCN)NC(=O)[C@H](CCCCN)NC(=O)[C@H](Cc1c[nH]c2ccccc12)NC(=O)[C@H](CC(C)C)NC(=O)CN)C(=O)N[C@@H](CCCCN)C(=O)N[C@@H](CC(N)=O)C(=O)N[C@H](C(=O)N[C@@H](C)C(=O)N[C@@H](C)C(=O)N[C@@H](C)C(=O)N[C@@H](C)C(=O)NCC(=O)N[C@@H](CCCCN)C(=O)N[C@@H](C)C(=O)N[C@@H](C)C(=O)N[C@@H](CC(C)C)C(=O)NCC(=O)N[C@@H](C)C(=O)N[C@@H](CC(C)C)C(N)=O)C(C)C [t-DPH1-K4] (H-GLWKKIKNVAAAAGKAALGAL-NH2) | 4 (≈ 8.2 µg/mL) | 2 (≈ 4.1 µg/mL) | 32 (≈ 65.6 µg/mL) | 32 (≈ 65.6 µg/mL) | 4 (≈ 8.2 µg/mL) | 2 (≈ 4.1 µg/mL) | 2 (≈ 4.1 µg/mL) | 1 (≈ 2.05 µg/mL) | 4 (≈ 8.2 µg/mL) | 2 (≈ 4.1 µg/mL) | 16 (≈ 32.8 µg/mL) | 8 (≈ 16.4 µg/mL) | 64 (≈ 131 µg/mL) | 32 (≈ 65.6 µg/mL) | 46.02 | 63.37 | 6.14 | 10.1 | 19 | 32.2 | HC50 (horse red blood cells; red cells of horse): 444.8 µM |
| CC[C@H](C)[C@H](NC(=O)[C@H](CCCCN)NC(=O)[C@H](CO)NC(=O)[C@H](Cc1c[nH]c2ccccc12)NC(=O)[C@H](CC(C)C)NC(=O)CN)C(=O)N[C@@H](CCCCN)C(=O)N[C@@H](CC(N)=O)C(=O)N[C@H](C(=O)N[C@@H](C)C(=O)N[C@@H](C)C(=O)N[C@@H](C)C(=O)N[C@@H](C)C(=O)NCC(=O)N[C@@H](CCCCN)C(=O)N[C@@H](C)C(=O)N[C@@H](C)C(=O)N[C@@H](CC(C)C)C(=O)NCC(=O)N[C@@H](C)C(=O)N[C@@H](CC(C)C)C(N)=O)C(C)C [t-DPH1] (H-GLWSKIKNVAAAAGKAALGAL-NH2) | 16 (≈ 32.2 µg/mL) | 8 (≈ 16.1 µg/mL) | 256 (≈ 514 µg/mL) | 128 (≈ 257 µg/mL) | 32 (≈ 64.3 µg/mL) | 16 (≈ 32.2 µg/mL) | 4 (≈ 8.04 µg/mL) | 2 (≈ 4.02 µg/mL) | 16 (≈ 32.2 µg/mL) | 8 (≈ 16.1 µg/mL) | 32 (≈ 64.3 µg/mL) | 16 (≈ 32.2 µg/mL) | 128 (≈ 257 µg/mL) | 64 (≈ 129 µg/mL) | 29.85 | 175.6 | 10.2 | 23.5 | 14.7 | 34.2 | haemolysis (horse red blood cells; 100 µM): over 50%; HC50 (horse red blood cells; red cells of horse): 106.4 µM; IC50 [11]: 10.2 to 34.2 µM |
| CC[C@H](C)[C@H](NC(=O)[C@H](CCCCN)NC(=O)[C@H](CCCCN)NC(=O)[C@H](Cc1c[nH]c2ccccc12)NC(=O)[C@H](CC(C)C)NC(=O)[C@@H](N)Cc1c[nH]c2ccccc12)C(=O)N[C@@H](CCCCN)C(=O)N[C@@H](CC(N)=O)C(=O)N[C@H](C(=O)N[C@@H](C)C(=O)N[C@@H](CCCCN)C(=O)N[C@@H](C)C(=O)N[C@@H](C)C(=O)NCC(=O)N[C@@H](CCCCN)C(=O)N[C@@H](C)C(=O)N[C@@H](C)C(=O)N[C@@H](CCCCN)C(=O)NCC(=O)N[C@@H](C)C(=O)N[C@@H](CC(C)C)C(N)=O)C(C)C [t-DPH1-6KW] (H-WLWKKIKNVAKAAGKAAKGAL-NH2) | 128 (≈ 288 µg/mL) | 128 (≈ 288 µg/mL) | > 512 | 512 (≈ 1150 µg/mL) | 256 (≈ 576 µg/mL) | 128 (≈ 288 µg/mL) | 4 (≈ 9.01 µg/mL) | 2 (≈ 4.5 µg/mL) | 64 (≈ 144 µg/mL) | 64 (≈ 144 µg/mL) | 128 (≈ 288 µg/mL) | 64 (≈ 144 µg/mL) | > 512 | 512 (≈ 1150 µg/mL) | 293.2 | 119.3 | 427 | 181 | 118 |  | HC50 (horse red blood cells): 2094 µM |
| CC[C@H](C)[C@H](NC(=O)[C@H](CCCCN)NC(=O)[C@H](CCCCN)NC(=O)[C@H](Cc1c[nH]c2ccccc12)NC(=O)[C@H](CC(C)C)NC(=O)CN)C(=O)N[C@@H](CCCCN)C(=O)N[C@@H](CC(N)=O)C(=O)N[C@H](C(=O)N[C@@H](C)C(=O)N[C@@H](CCCCN)C(=O)N[C@@H](C)C(=O)N[C@@H](C)C(=O)NCC(=O)N[C@@H](CCCCN)C(=O)N[C@@H](C)C(=O)N[C@@H](C)C(=O)N[C@@H](CC(C)C)C(=O)NCC(=O)N[C@@H](C)C(=O)N[C@@H](CC(C)C)C(N)=O)C(C)C [t-DPH1-5K] (H-GLWKKIKNVAKAAGKAALGAL-NH2) | 2 (≈ 4.22 µg/mL) | 2 (≈ 4.22 µg/mL) | 16 (≈ 33.7 µg/mL) | 8 (≈ 16.9 µg/mL) | 4 (≈ 8.43 µg/mL) | 2 (≈ 4.22 µg/mL) | 4 (≈ 8.43 µg/mL) | 2 (≈ 4.22 µg/mL) | 4 (≈ 8.43 µg/mL) | 2 (≈ 4.22 µg/mL) | 8 (≈ 16.9 µg/mL) | 4 (≈ 8.43 µg/mL) | 512 (≈ 1080 µg/mL) | 256 (≈ 540 µg/mL) | 3.897 | 3.332 | 1.55 | 1.8 | 2.6 | 2.68 | haemolysis (horse red blood cells; 10 µM): ~40%; HC50 (horse red blood cells; red cells of horse): 19.39 µM |
